Consider 4 molecules from patent US10251915B2, “Co-encapsulation of live cells with oxygen-generating particles” (Wake Forest University Health Sciences, priority 2011, dated 2019).

“Also recorded” adds a separate entry of the source.

Data set [1] can be described thus: Oxygen release (dissolved oxygen) from POGS encapsulated in alginate microbeads in a hypoxic chamber. It counts as physicochemical. The following applies: for duration of oxygen release from alginate microbeads containing MgO2 in the presence of antioxidant: 2.5% MPO in alginate microcapsules, 100 U/ml catalase, 1.5 mM Trolox, compared to MPO alone. An excerpt:
FIG. 1: Comparison of CaO2 and MgO2 release over six days, dissolved oxygen readings are an average of 5 sample groups with 1500 microcapsules each; measurements were taken in a hypoxic chamber.
FIG. 2: Effect of antioxidants on oxygen release from alginate microcapsules with 2.5% MPO.
Comparison of CPO and MPO: We first examined the oxygen release profiles of two POGS, CPO and MPO encapsulated in alginate microbeads in the absence or presence of catalase (100 U/ml), and the antioxidant, Trolox (1.5 mM). Sieves were used to select both MPO and CPO particles equal to and less than 25 μm in diameter. Then 0.5% by weight solution of 1.5% LVM and either CPO or MPO were prepared respectively. These solutions were then extruded through an encapsulating device forming microspheres measuring […] in diameter, which were allowed to crosslink for 15 minutes in 1.1% CaCl2 solution. After cross-linking, the microbeads were rinsed with HBSS and placed into 50 ml conical tubes (BD, USA) containing 20 mL ultra pure water with 10 mM HEPES (pH=7.4). Tubes were placed in a 1% oxygen environment in a hypoxic glovebox system (Biospherix, USA) with the caps of the tubes removed allowing for gas exchange. Dissolved oxygen readings were taken every 24 hours for 6 days using an Orion 4-star DO Probe (Thermo Science).
Oxygen release from MPO Alginate Capsules: On the basis of a better release profile, we then selected MgO2 for further studies. First the release profiles of various concentrations of MPO were measured. Using the same technique as described above 0%, 0.25%, 0.5%, 1%, 1.5%, 2.0%, 2.5%, 5%, 10%, 20%, 30%, and 40% (by weight) solutions of MPO in 1.5% UP LVM were prepared, with particles larger than 25 μM sieved out of the solution prior to encapsulation. […] Dissolved oxygen levels were measured for up to 250 hours. Using the same methodology we then assessed the effect of the antioxidants, Catalase and Trolox, on oxygen release. […] Capsules were prepared and dissolved oxygen levels were measured as described earlier. […] Dissolved oxygen levels were measured for up to 250 hours.

Data set [2] concerns Isolated human islets. Nature of the data set: MTS viability assay of islets co-cultured with MPO and antioxidants. The format is cell-based. How it is done: FIG. 4: Viability of islets co-cultured with MPO and antioxidants. Isolated human islets were co-cultured with 10 mM MPO for 2 days in normal culture conditions with the following antioxidants: 100 Units/mL Catalase, 1.5 mM Trolox and 30 μM MnTE-2-Pyp. After the two day culture period islet viabilty was determined with an MTS assay. Error bars represent standard deviation, n=5.
Previous studies have shown that the isolation process predisposes islets to subsequent damage and functional impairment and that an SOD mimicking catalytic antioxidant, MnTE-2-PyP (also called AEOL10113), developed by Drs.

The subject of data set [3] is islet cell functional mass. The following applies: used in the isolation or culture medium; cited from earlier work.

As to `[Mg+2].[O-][O-]` [MPO, Magnesium Peroxide], the release of oxygen result in data set [1] (0.5% by weight CPO or MPO in 1.5% LVM alginate microbeads, 1% oxygen environment, readings every 24 hours for 6 days) is “higher release of oxygen for up to five days compared to CPO”. Moreover, in data set [2] (10 mM MPO, 2 days normal culture), the “effect of MPO on islet viability” value was “diminishing effect”.

Regarding `CC[n+]1ccccc1-c1c2nc(c(-c3cccc[n+]3CC)c3ccc([n-]3)c(-c3cccc[n+]3CC)c3nc(c(-c4cccc[n+]4CC)c4ccc1[n-]4)C=C3)C=C2.[Mn+3]` [MnTE-2-PyP, Mn (III) tetrakis (N-ethylpyridinium-2-yl) porphyrin], in data set [2] (10 mM MPO, 30 μM MnTE-2-Pyp, 2 days normal culture), the “effect on viability of islets co-cultured with MPO” value is listed as “counteracts the diminishing effect of MPO on islet viability”. For the same molecule, the “viability of isolated human islets” value in data set [2] (added to islets in normal culture, 30 μM MnTE-2-Pyp, 2 days, n=5) was “significantly (p<0.05) enhances the viability”. Moreover, the “preservation of islet cell functional mass” value in data set [3] is “beneficial in preserving islet cell functional mass”.

Consider `Cc1c(C)c2c(c(C)c1O)CCC(C)(C(=O)O)O2` (stereo not shown) [Trolox, 6-hydroxy-2,5,7,8-tetramethylchroman-2-carboxylic acid], for which the “duration of oxygen release from alginate microbeads containing MgO2 in the presence of antioxidant” value in data set [1] is “this effect is not observed; also recorded: no significant change”.

B1: catalase: Catalase (from bovine liver), peroxide decomposition catalyst (protein, UniProt P00432 2-527, looked up)
Catalase: ADNRDPASDQMKHWKEQRAAQKPDVLTTGGGNPVGDKLNSLTVGPRGPLLVQDVVFTDEMAHFDRERIPERVVHAKGAGAFGYFEVTHDITRYSKAKVFEHIGKRTPIAVRFSTVAGESGSADTVRDPRGFAVKFYTEDGNWDLVGNNTPIFFIRDALLFPSFIHSQKRNPQTHLKDPDMVWDFWSLRPESLHQVSFLFSDRGIPDGHRHMNGYGSHTFKLVNANGEAVYCKFHYKTDQGIKNLSVEDAARLAHEDPDYGLRDLFNAIATGNYPSWTLYIQVMTFSEAEIFPFNPFDLTKVWPHGDYPLIPVGKLVLNRNPVNYFAEVEQLAFDPSNMPPGIEPSPDKMLQGRLFAYPDTHRHRLGPNYLQIPVNCPYRARVANYQRDGPMCMMDNQGGAPNYYPNSFSAPEHQPSALEHRTHFSGDVQRFNSANDDNVTQVRTFYLKVLNEEQRKRLCENIAGHLKDAQLFIQKKAVKNFSDVHPEYGSRIQALLDKYNEEKPKNAVHTYVQHGSHLSAREKANL
With B1, in data set [1], the “duration of oxygen release from alginate microbeads containing MgO2 in the presence of antioxidant” value is reported as “significantly shortened”.
